For 10 compounds, TGI and GI50 results are on record in PubChem BioAssay (NCI).

Some test systems named below: HOP-92 NSCLC; EKVX NSCLC; PC-3 prostate; A498 renal; DU-145 prostate; MCF7 breast; A549 NSCLC; HS 578T breast; K-562 leukemia; OVCAR-5 ovarian.
Common to all, as to experiment: NCI anticancer screen, dose series, 48 h

Where “and” joins values, the source holds several entries; their conditions need not be identical. Equal values may be shown once.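 Briefly, cells in 96-well plates were exposed to five compound concentrations for 48 h, and endpoints were estimated by linear interpolation. At the GI50, growth is halved. Definition used: TGI = concentration required for complete inhibition of growth.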

On to `N#CC1C[C@@H]2CC3(CCC2CN1C(=O)c1ccccc1)OCCO3` (stereo not given in full), for which the TGI in the test on HOP-92 NSCLC, in the test with EKVX NSCLC, in the test with PC-3 prostate, with A498 renal, in the test on DU-145 prostate and in the test with MCF7 breast was over 100 µM in each case. Moreover, the TGI in the test on A549 NSCLC, in the test on HS 578T breast, in the test on K-562 leukemia and in the test with OVCAR-5 ovarian was over 100 µM each time. Moreover, the GI50 in the test with PC-3 prostate, with DU-145 prostate, in the test on MCF7 breast and in the test on HS 578T breast was over 100 µM each time.
For the compound `ClCCCSSCCCCl`, the TGI is over 72.8 µM in the test on HOP-92 NSCLC; over 100 µM with EKVX NSCLC; 85.5 µM in the test on PC-3 prostate; over 100 µM with A498 renal; over 100 µM in the test with DU-145 prostate; 97.6 µM in the test with MCF7 breast. In addition, the TGI is over 100 µM in the test on A549 NSCLC, 64.9 µM in the test on HS 578T breast, over 100 µM in the test on K-562 leukemia and over 100 µM in the test on OVCAR-5 ovarian.
With `COC(=O)C12CCC(C)(C)CC1C1=CCC3C4(C)CC(O)C(O)C(C)(C(=O)OC)C4CCC3(C)C1(CO)CC2` (stereo not given), the TGI in the test with HOP-92 NSCLC was determined as 29.1 µM; in the test with EKVX NSCLC it was 44.1 µM; in the test with PC-3 prostate it was 22 µM; in the test on A498 renal, 33.2 µM; in the test with DU-145 prostate, 29.1 µM; with MCF7 breast, 29.8 µM. Besides, the TGI in the test on A549 NSCLC was 29 µM; in the test on HS 578T breast, 28.2 µM; in the test on K-562 leukemia, over 100 µM; with OVCAR-5 ovarian, 31.8 µM.
As to `Fc1cc(F)c(F)c(S)c1F`, the TGI with HOP-92 NSCLC was over 100 µM; in the test with EKVX NSCLC it was 55.2 µM; with PC-3 prostate it was 42.2 µM; in the test on A498 renal, 33.2 µM; in the test with DU-145 prostate, over 100 µM; in the test on MCF7 breast it was over 100 µM. The TGI in the test with A549 NSCLC, in the test with HS 578T breast, in the test on K-562 leukemia and in the test on OVCAR-5 ovarian was over 100 µM in each case.
Take `N#CC(C#N)=CNCCN1CCN(C=C(C#N)C#N)CC1`: the TGI in the test with HOP-92 NSCLC, in the test with EKVX NSCLC, in the test on PC-3 prostate, in the test with A498 renal, in the test on DU-145 prostate and in the test with MCF7 breast was over 100 µM throughout. In addition, the TGI with A549 NSCLC, in the test on HS 578T breast, with K-562 leukemia and with OVCAR-5 ovarian was over 100 µM each time.
Take `COC(=O)C1=COC2OC3C(C(C)O)C(=O)OC34C=CC1C24` (stereo not given): the TGI with HOP-92 NSCLC, in the test on EKVX NSCLC, in the test on PC-3 prostate, in the test on A498 renal, in the test on DU-145 prostate and in the test with MCF7 breast was over 100 µM throughout. Moreover, the TGI in the test on A549 NSCLC, in the test on HS 578T breast, in the test with K-562 leukemia and with OVCAR-5 ovarian was over 100 µM each time.
Regarding `Cn1cc(C2=C(c3c4n(c5ccccc35)CCNC4)C(=O)NC2=O)c2ccccc21`, the GI50 in the test on HOP-92 NSCLC is 11.5 µM; in the test with PC-3 prostate, 7.02 µM; with A498 renal, 4.71 µM; in the test on DU-145 prostate, 12.6 µM; in the test with MCF7 breast it was 4.78 µM; in the test on A549 NSCLC it was 11.8 µM. Also, the results for the GI50 in the test with HS 578T breast, in the test on K-562 leukemia and with OVCAR-5 ovarian were 4.14 µM, 4.1 µM and over 25 µM, respectively. Further, the TGI is over 25 µM with HOP-92 NSCLC; over 25 µM with PC-3 prostate; 14.3 µM in the test with A498 renal; over 25 µM with DU-145 prostate; over 23.8 µM in the test with MCF7 breast; over 25 µM in the test with A549 NSCLC. The TGI with HS 578T breast was over 20.5 µM; in the test with K-562 leukemia, over 25 µM; in the test with OVCAR-5 ovarian it was over 25 µM.
Turning to `O=C(CCCn1c2c(sc3ccccc32)c(=O)n2nnc(-c3ccccc3)c12)NCCc1cnc[nH]1`, the GI50 is 6.16 µM in the test on HOP-92 NSCLC; 3.52 µM in the test on EKVX NSCLC; 0.0603 µM in the test on PC-3 prostate; 1.41 µM with A498 renal; 0.833 µM with DU-145 prostate; 1.1 µM in the test with MCF7 breast. Besides, the figures for the GI50 in the test on HS 578T breast, in the test with K-562 leukemia and with OVCAR-5 ovarian were 0.783 µM, 0.0456 µM and 0.0751 µM, respectively. Besides, the TGI in the test on HOP-92 NSCLC stood at 33 µM; in the test with EKVX NSCLC, 18.6 µM; in the test with PC-3 prostate, 2.21 µM; in the test with A498 renal, 2.85 µM; with DU-145 prostate it was 2.2 µM; in the test with MCF7 breast it was 2.43 µM. Moreover, the TGI in the test on HS 578T breast is 2.19 µM; with OVCAR-5 ovarian, 1.51 µM.
Regarding `CS(=O)(=O)CCNCc1ccc(-c2ccc3ncnc(Nc4ccc(OCc5cccc(F)c5)c(Cl)c4)c3c2)o1`, the GI50 was 2.17 µM and 18.6 µM and 2.03 µM with HOP-92 NSCLC; 0.374 µM and 0.0822 µM and 0.107 µM in the test on EKVX NSCLC; 9.68 µM and 5.3 µM and 4.45 µM with PC-3 prostate; 2.32 µM and 1.98 µM and 3.67 µM in the test with A498 renal; 7.11 µM and 2.61 µM and 6.75 µM in the test with DU-145 prostate; 7.66 µM and 2.18 µM and 2.11 µM with MCF7 breast. The GI50 in the test on A549 NSCLC is 7.66 µM and 5.68 µM and 5.76 µM; in the test with HS 578T breast, > 10 µM and 8.49 µM and 8.64 µM; with K-562 leukemia, > 10 µM and 1.99 µM and 2.61 µM. Also, the TGI is > 10 µM and > 100 µM and 14.4 µM in the test on HOP-92 NSCLC; > 10 µM and > 100 µM and 41.7 µM in the test with EKVX NSCLC; > 10 µM and > 100 µM and 46.4 µM in the test on PC-3 prostate; > 10 µM and > 33 µM and 23.8 µM in the test with A498 renal; > 10 µM and > 100 µM and 34.8 µM in the test on DU-145 prostate; > 10 µM and 9.12 µM and 6.69 µM in the test on MCF7 breast. The TGI in the test with A549 NSCLC was > 10 µM and > 100 µM and 23.5 µM; in the test with HS 578T breast, > 10 µM and > 53.7 µM and 57.6 µM; with K-562 leukemia, > 10 µM and 4.67 µM and 18.3 µM.
Turning to `CC1(C)CC(=O)C=C(/C=C/Sc2c(Cl)c(Cl)nc(Cl)c2Cl)C1`, the GI50 in the test on HOP-92 NSCLC is 16.7 µM; in the test on PC-3 prostate, 3.54 µM; with A498 renal, 21.7 µM; in the test with DU-145 prostate, 10 µM; in the test on MCF7 breast, 2.47 µM; in the test on A549 NSCLC, 15.4 µM. Also, the GI50 was 25.8 µM with HS 578T breast, 8.79 µM with K-562 leukemia and 14.5 µM in the test with OVCAR-5 ovarian. Moreover, the TGI in the test with HOP-92 NSCLC turned out to be 35.2 µM; in the test with PC-3 prostate it was 14.1 µM; in the test with A498 renal it was 36.6 µM; in the test with DU-145 prostate, 21.7 µM; with MCF7 breast, 8.05 µM; with A549 NSCLC it was 29.8 µM. In addition, the TGI in the test on HS 578T breast is 74.3 µM; in the test with K-562 leukemia, over 100 µM; in the test with OVCAR-5 ovarian it was 29.7 µM.
